Experimental data reported in patent US20140364460A1, “USE OF FATOSTATIN FOR TREATING CANCER HAVING A p53 MUTATION” (THE TRUSTEES OF COLUMBIA UNIVERSITY IN THE CITY OF NEW YORK, priority 2012, published 2014).

Tests used:
[1] = mice, after administration of 23 mg/kg; cited from earlier work
[2] = tested on: mutant p53 binding to the HMG-CoA reductase gene promoter; experiment: Quantitative ChIP of mutant p53 in fatostatin-treated MDA-468.shp53 cells; type: cell-based; conditions: fatostatin 20 μM, six independent experiments, p<0.01
Method: FIG. 1. MDA-468.shp53 cells were treated with fatostatin (20 μM) and subjected to ChIP analysis. Data are presented as mean+−SD of six independent experiments. **p<0.01
Chromatin Immunoprecipitation (ChIP) experiments were carried out as described in Beckerman et al., 2009. Briefly, MDA-468 cells were treated with 1% formaldehyde prior to lysis in RIPA Buffer and sonication to yield 500 bp fragments. Protein A/G Sepharose beads were conjugated to anti-p53 antibodies (1801/D0-1) which were subsequently used to immunoprecipitate p53 from 1 mg whole cell lysate. Quantitative ChIP was carried out on an ABI StepOne Plus using SYBR green dye. Genomic Locations of SRE-1 sites within the promoters of sterol biosynthesis genes were located using a literature search: HMGCS 1 (Inoue et al., 1998), HMGCR (Boone et al., 2009), MVK (Bishop et al., 1998), FDPS (Ishimoto et al., 2010), FDFT1 (Inoue et al., 1998), SQLE (Nagai et al., 2002) and CYP51A1 (Halder et al., 2002), respectively. ChIP primer sequences are provided in Table 2 of PCT/US 11/55488 and are incorporated by reference.
MDA-468.shp53 cells were treated with Fatostatin (20 μM) and subjected to ChIP analysis. FIG. 1. Cells in 3D culture were treated on Day 1 or Day 4 of the 3D protocol and refed every 4 days with fresh drug. Data are presented as mean+−SD of six independent experiments. **p<0.01.

[3] = tested on: MDA-231 cells; experiment: Three-dimensional culture of MDA-231.shp53 cells; type: cell-based; conditions: 3D culture 8 days, fatostatin 2 or 20 μM added day 1
Method: FIG. 2. MDA-231.shp53 cells were grown in 3D cultures for 8 days and treated with (A) DMSO, (B) Fatostatin 2 μM or (C) Fatostatin 20 μM. Drugs were added on day 1. Representative DIC images are shown. Scale bar, 200 μm.
(§1) Three-dimensional culture was carried out as described in Debnath et al., 2003. Briefly, 8-well chamber slides were lined with 50 μl growth factor reduced Matrigel (BD Biosciences). Cells were then seeded at a density of 5,000 cells/well in Assay Medium (DMEM/F12+2% Horse Serum+10 μg/ml Insulin+0.5 μg/ml Hydrocortisone) containing 2% Matrigel. Cells were refed with Assay Medium containing 2% Matrigel every 4 days. For RNA/protein analysis from 3D cultures, 35 mm plates were lined with 500 μl Matrigel and cells were seeded at a density of 225,000 cells/plate in Assay Medium+2% Matrigel. Cells were harvested using Cell Recovery Solution (BD Biosciences) according to the manufacturer's instructions.
MDA-231.shp53 cells were grown in 3D cultures for 8 days and treated with DMSO and fatostatin (2 or 20 μM). Drugs were added on day 1. Representative DIC images are shown. FIG. 2. Scale bar, […].

[4] = tested on: SKBR3 cells; experiment: Three-dimensional culture of SKBR3 cells; type: cell-based; conditions: 3D culture 8 days, fatostatin 2 or 20 μM added Day 1
Method: (§2) FIG. 3. Fatostatin inhibits SKBR3 cell growth in 3D Culture. SKBR3 cells were grown in 3D cultures for 8 days treated with (A) DMSO, (B) Fatostatin 2 μM or (C) Fatostatin 20 μM. Drugs were added on Day 1. Representative Differential Interference Contrast (DIC) images are shown. Scale bar, 200 μm.
as §1
SKBR3 cells were grown in 3D cultures for 8 days treated with DMSO, Fatostatin (2 μM) or (20 μM). Drugs were added on Day 1.

[5] = tested on: MDA-468 cells; experiment: Three-dimensional culture of MDA-468.shp53 cells; type: cell-based; conditions: 3D culture 10 days, fatostatin 2 or 20 μM added Day 1
Method: as §2, with “FIG. 4.” for “FIG. 3.”, “inhibits MDA-468” for “inhibits SKBR3”, “Culture. MDA-468.shp53” for “Culture. SKBR3”, “for 10” for “for 8”
as §1
MDA-468.shp53 cells were grown in 3D cultures for 10 days treated with DMSO, Fatostatin (2 μM) or (20 μM). Drugs were added on Day 1.

Row | Structure (SMILES) | oral availability [1] | level of mutant p53 binding to the HMG-CoA reductase gene promoter [2] | cell growth in 3D culture [3] | normalizing the abnormal 3D morphology [3] | cell growth in 3D culture [4] | normalizing the abnormal 3D morphology [4] | cell growth in 3D culture [5] | normalizing the abnormal 3D morphology [5]
1 | CCCc1cc(-c2nc(-c3ccc(NS(C)(=O)=O)cc3)cs2)ccn1 [N-(4-(2-(2-Propylpyridin-4-yl)thiazol-4-yl)phenyl)methanesulfonamide] | demonstrated |  |  |  |  |  |  | 
2 | CCCc1cc(-c2nc(-c3ccc(C)cc3)cs2)ccn1 [fatostatin, 2-Propyl-4-(4-(p-tolyl)thiazol-2-yl) pyridine] |  | significantly reduced | inhibited | dramatic effect on normalizing the abnormal 3D morphology | inhibited | dramatic effect on normalizing the abnormal 3D morphology | inhibited | dramatic effect on normalizing the abnormal 3D morphology
